Results from patent US20060280817A1, “Pharmaceutical composition useful for the treatment of hepatocellular carcinoma” (priority 2005, published 2006).

Tests used:
KB = assay: In vitro cytotoxicity (SRB), KB; assay type: cell-based, human; settings: 2 × 10^−5 M, 48 h
Experimental: (§1) The human cancer cell lines procured from National Cancer Institute, Frederick, U.S.A or National Center for Cell Science; Pune, India. were used in present study. Cells were grown in tissue culture flasks in complete growth medium (RPMI-1640 medium with 2 mM glutamine, 100 μg/ml streptomycin, pH 7.4, sterilized by filtration and supplemented with 10% fetal calf serum and 100 units/ml penicillin before use) at 37° C. in an atmosphere of 5% CO2 and 90% relative humidity in a carbon dioxide incubator. The cells at subconfluent stage were harvested from the flask by treatment with trypsin (0.5% in PBS containing 0.02% EDTA) for determination of cytotoxicity. Cells with viability of more than 98% as determined by trypan blue exclusion were used for assay. […]
(§2) A stock solutions of (20 mg/ml) of test material were prepared in distilled water. […] In vitro cytotoxicity against human cancer cell lines was determined (Monks, A., Scudiero, D., Skehan, P., Shoemaker R., Paull, K., Vistica, D., Hose, C., Langley, j., Cronise, P., Vaigro-Wolff, A., Gray-Goodrich, M., Campbell, H., Mayo, J and Boyd, M. (1991). Feasibility of a high-flux anticancer drug screen using a diverse panel of cultured human tumor cell lines. J. Natl. Cancer Inst. 83, 757-766.) using 96-well tissue culture plates. […] The optical density (OD) was recorded on ELISA reader at 540 nm. […]

HCT 15 = assay: In vitro cytotoxicity (SRB), HCT 15; assay type: cell-based, human; settings: 48 h
Experimental: (§3) The human cancer cell lines procured from National Cancer Institute, Frederick, U.S.A or National Center for Cell Science; Pune, India. were used in present study. Cells were grown in tissue culture flasks in complete growth medium (RPMI-1640 medium with 2 mM glutamine, 100 μg/ml streptomycin, pH 7.4, sterilized by filtration and supplemented with 10% fetal calf serum and 100 units/ml penicillin before use) at 37° C. in an atmosphere of 5% CO2 and 90% relative humidity in a carbon dioxide incubator. The cells at subconfluent stage were harvested from the flask by treatment with trypsin (0.5% in PBS containing 0.02% EDTA) for determination of cytotoxicity. Cells with viability of more than 98% as determined by trypan blue exclusion were used for assay. The cell suspension of the required cell density was prepared in complete growth medium with gentamycin (50 μg/ml) for determination of cytotoxicity.
(§4) A stock solutions of (20 mg/ml) of test material were prepared in distilled water. The stock solutions were serially diluted with complete growth medium containing 50 μg/ml of gentamycin to obtain working test solutions of required concentrations. In vitro cytotoxicity against human cancer cell lines was determined (Monks, A., Scudiero, D., Skehan, P., Shoemaker R., Paull, K., Vistica, D., Hose, C., Langley, j., Cronise, P., Vaigro-Wolff, A., Gray-Goodrich, M., Campbell, H., Mayo, J and Boyd, M. (1991). Feasibility of a high-flux anticancer drug screen using a diverse panel of cultured human tumor cell lines. J. Natl. Cancer Inst. 83, 757-766.) using 96-well tissue culture plates. The 100 μl of cell suspension was added to each well of the 96-well tissue culture plate. The cells were incubated for 24 hours. Test materials in complete growth medium (100 μl) were added after 24 hours incubation to the wells containing cell suspension. The plates were further incubated for 48 hours (at 37° C. in an atmosphere of […] 90% relative humidity in a carbon dioxide incubator) after addition of test material and then the cell growth was stopped by gently layering trichloroacetic acid (TCA, 50 μl, 50%) on top of the medium in all the wells. The plates were incubated at 4° C. for one hour to fix the cells attached to the bottom of the wells. The liquid of all the wells was gently pipetted out and discarded. The plates were washed five times with distilled water to remove TCA, growth medium low molecular weight metabolites, serum proteins etc and air-dried. Cell growth was measured by staining with sulforhodamine B dye (P. Skehan, R. Storeng, D. Scudiero, A. Monks, J. McMohan, D. Vistica, J. T. Warren, H. Bokesch, S. Kenney, M. R. Boyd (1990) New colorimetric cytotoxic Assay for Anticancer—Drug Screening Journal of the National Cancer Institute 82, 1107-1112). The adsorbed dye was dissolved in Tris-Buffer (100 μl, 0.01M, pH 10.4) and plates were gently stirred for 5 minutes on a mechanical stirrer. The optical density (OD) was recorded on ELISA reader at 540 nm.
(§5) The cell growth was calculated by subtracting mean OD value of respective blank from the mean OD value of experimental set. Percent growth in presence of test material was calculated considering the growth in absence of any test material as 100% and in turn percent growth inhibition in presence of test material will be calculated.
(§6) Methodology is the same as given in example 6 except for stock solutions of 1×10^−2M was prepared instead of 20 mg/ml.

T 47 D = assay: In vitro cytotoxicity (SRB), T 47 D; assay type: cell-based; settings: Homo sapiens, T47D, 1 × 10^−5 M, 48 h, read-out: percent growth inhibition
Experimental: as §1, §2

HT 29 = assay: In vitro cytotoxicity (SRB), HT 29; assay type: cell-based, human; settings: 48 h
Experimental: as §3, §4, §5, §6

NIH OVCAR5 = assay: In vitro cytotoxicity (SRB), NIH OVCAR5; assay type: cell-based; settings: Homo sapiens, OVCAR-5; NIH OVCAR5, 1 × 10^−5 M, 48 h; read-out: percent growth inhibition
Experimental: as §1, §2

MCF-7 = assay: In vitro cytotoxicity (SRB), MCF-7; assay type: cell-based; settings: Homo sapiens, MCF7; MCF-7, 1 × 10^−5 M, 48 h; read-out: percent growth inhibition
Experimental: as §1, §2

SK N SH = assay: In vitro cytotoxicity (SRB), SK N SH; assay type: cell-based, human; settings: 48 h
Experimental: as §3, §4, §5, §6

IMR 32 = assay: In vitro cytotoxicity (SRB), IMR 32; assay type: cell-based, human; settings: IMR 32, 1 × 10^−5 M, 48 h
Experimental: as §1, §2

ZR 75-1 = assay: In vitro cytotoxicity (SRB), ZR 75-1; assay type: cell-based; settings: Homo sapiens; ZR 75-1, 1 × 10^−5 M, 48 h; read-out: percent growth inhibition
Experimental: as §1, §2

SNB 78 = assay: In vitro cytotoxicity (SRB), SNB 78; assay type: cell-based, human; settings: SNB 78, 1 × 10^−5 M, 48 h
Experimental: as §1, §2

SW 620 = assay: In vitro cytotoxicity (SRB), SW 620; assay type: cell-based, human; settings: 48 h
Experimental: as §3, §4, §5, §6

SiHa = assay: In vitro cytotoxicity (SRB), SiHa; assay type: cell-based, human; settings: 48 h
Experimental: as §3, §4, §5, §6

Colo 205 = assay: In vitro cytotoxicity (SRB), Colo 205; assay type: cell-based, human; settings: 48 h
Experimental: as §3, §4, §5, §6

HOP-62 = assay: In vitro cytotoxicity (SRB), HOP-62; assay type: cell-based, human; settings: 48 h
Experimental: as §3, §4, §5, §6

DU 145 = assay: In vitro cytotoxicity (SRB), DU 145; assay type: cell-based, human; settings: DU 145, 1 × 10^−5 M, 48 h
Experimental: as §1, §2

NIH OVCAR 3 = assay: In vitro cytotoxicity (SRB), NIH OVCAR 3; assay type: cell-based, human; settings: NIH OVCAR 3, 1 × 10^−5 M, 48 h
Experimental: as §1, §2

NCI-H23 = assay: In vitro cytotoxicity (SRB), NCI-H23; assay type: cell-based, human; settings: NCI-H23, 1 × 10^−5 M, 48 h
Experimental: as §1, §2

A 549 = assay: In vitro cytotoxicity (SRB), A 549; assay type: cell-based, human; settings: A 549, 1 × 10^−5 M, 48 h
Experimental: as §1, §2

SK N MC = assay: In vitro cytotoxicity (SRB), SK N MC; assay type: cell-based; settings: Homo sapiens, 1 × 10^−5 M, 48 h, read-out: percent growth inhibition
Experimental: as §1, §2

O=c1[nH]cc(F)c(=O)[nH]1 [5-Flurouracil, reference compound]
percent growth inhibition (KB): 9%
percent growth inhibition (HCT 15; HCT 15, 2 × 10^−5 M): 50%

COc1cccc2c1C(=O)c1c(O)c3c(c(O)c1C2=O)C[C@@](O)(C(=O)CO)C[C@@H]3O[C@H]1C[C@H](N)[C@H](O)[C@H](C)O1 [Adriamycin]
inhibition (T 47 D): 34%
percent growth inhibition (HT 29; HT 29, 1 × 10^−5 M): 69%
inhibition (NIH OVCAR5): 45%
inhibition (MCF-7): 72%
inhibition at 10 µM (SK N SH; Homo sapiens, SK N SH, 1 × 10^−5 M, read-out: percent growth inhibition): 82%
percent growth inhibition (IMR 32): 87%
inhibition (ZR 75-1): 46%
percent growth inhibition (SNB 78): 20%
percent growth inhibition (SW 620; SW 620, 1 × 10^−5 M): 59%

O=C1C[C@@H](c2ccc(O)c(O[C@@H]3O[C@H](CO)[C@@H](O)[C@H](O)[C@H]3O)c2)Oc2cc(O[C@@H]3O[C@H](CO)[C@@H](O)[C@H](O)[C@H]3O)ccc21 [Butrin]
percent growth inhibition (SiHa; 1 × 10^−4 M): 80%
percent growth inhibition (SiHa; 1 × 10^−5 M): 0%
percent growth inhibition (SiHa; 1 × 10^−6 M): 0%
percent growth inhibition (HT 29; HT 29, 1 × 10^−5 M): 11%
percent growth inhibition (HT 29; HT-29, 1 × 10^−4 M): 99%
percent growth inhibition (HT 29; HT-29, 1 × 10^−6 M): 9%
percent growth inhibition (SK N SH; SK N SH, 1 × 10^−5 M): 8%
percent growth inhibition (SK N SH; SK-NSH, 1 × 10^−4 M): 83%
percent growth inhibition (SK N SH; SK-NSH, 1 × 10^−6 M): 9%
percent growth inhibition (HCT 15; HCT-15, 1 × 10^−4 M): 98%
percent growth inhibition (HCT 15; HCT-15, 1 × 10^−5 M): 26%
percent growth inhibition (HCT 15; HCT-15, 1 × 10^−6 M): 0%
percent growth inhibition (Colo 205; Colo-205, 1 × 10^−4 M): 40%
percent growth inhibition (Colo 205; Colo-205, 1 × 10^−5 M): 0%
percent growth inhibition (Colo 205; Colo-205, 1 × 10^−6 M): 0%
percent growth inhibition (HOP-62; HOP-62, 1 × 10^−4 M): 65%
percent growth inhibition (HOP-62; HOP-62, 1 × 10^−5 M): 6%
percent growth inhibition (HOP-62; HOP-62, 1 × 10^−6 M): 0%
percent growth inhibition (SW 620; SW620, 1 × 10^−4 M): 92%
percent growth inhibition (SW 620; SW 620, 1 × 10^−5 M): 0%
percent growth inhibition (SW 620; SW620, 1 × 10^−6 M): 0%

O=C(/C=C/c1ccc(O)c(O[C@@H]2O[C@H](CO)[C@@H](O)[C@H](O)[C@H]2O)c1)c1ccc(O[C@@H]2O[C@H](CO)[C@@H](O)[C@H](O)[C@H]2O)cc1O [Isobutrin]
percent growth inhibition (SiHa; 1 × 10^−4 M): 50%
percent growth inhibition (SiHa; 1 × 10^−5 M): 0%
percent growth inhibition (SiHa; 1 × 10^−6 M): 0%
percent growth inhibition (HT 29; HT 29, 1 × 10^−5 M): 10%
percent growth inhibition (HT 29; HT-29, 1 × 10^−4 M): 94%
percent growth inhibition (HT 29; HT-29, 1 × 10^−6 M): 0%
percent growth inhibition (SK N SH; SK N SH, 1 × 10^−5 M): 25%
percent growth inhibition (SK N SH; SK-NSH, 1 × 10^−4 M): 93%
percent growth inhibition (SK N SH; SK-NSH, 1 × 10^−6 M): 0%
percent growth inhibition (HCT 15; HCT-15, 1 × 10^−4 M): 99%
percent growth inhibition (HCT 15; HCT-15, 1 × 10^−5 M): 21%
percent growth inhibition (HCT 15; HCT-15, 1 × 10^−6 M): 0%
percent growth inhibition (Colo 205; Colo-205, 1 × 10^−4 M): 74%
percent growth inhibition (Colo 205; Colo-205, 1 × 10^−5 M): 0%
percent growth inhibition (Colo 205; Colo-205, 1 × 10^−6 M): 0%
percent growth inhibition (HOP-62; HOP-62, 1 × 10^−4 M): 65%
percent growth inhibition (HOP-62; HOP-62, 1 × 10^−5 M): 0%
percent growth inhibition (HOP-62; HOP-62, 1 × 10^−6 M): 0%
percent growth inhibition (SW 620; SW620, 1 × 10^−4 M): 85%
percent growth inhibition (SW 620; SW 620, 1 × 10^−5 M): 0%
percent growth inhibition (SW 620; SW620, 1 × 10^−6 M): 0%

CO[C@@]12[C@H](COC(N)=O)C3=C(C(=O)C(C)=C(N)C3=O)N1C[C@@H]1N[C@@H]12 [Mitomycin C]
percent growth inhibition (DU 145): 69%
percent growth inhibition (NIH OVCAR 3): 31%
percent growth inhibition (IMR 32): 83%
percent growth inhibition (NCI-H23): 59%

CC/C(=C(\c1ccccc1)c1ccc(OCCN(C)C)cc1)c1ccccc1 [Tamoxifen]
percent growth inhibition (A 549): 17%
inhibition (NIH OVCAR5): 20%
inhibition (SK N MC): 27%
